# Like-named read-outs stand apart in the source and are kept apart here.
# Assays:
# S.dublin = test: Treatment of acute salmonellosis in calves, compound administered alone; assay type: in vivo; settings: administered alone at dosages of up to 6 mg/kg
# S. dublin strain M738 = test: MIC by surface growth inhibition method, checkerboard two-fold dilution series; assay type: cell-based; settings: for MIC: Salmonella enterica, M738
# Description: Estimation of the minimum inhibitory concentrations (MICs) of Compound A and SDD, alone and together, was carried out by a surface growth inhibition method, using a "checkerboard" two-fold dilution series, with Compound A and SDD ranges of […] and 256 to 1µg/ml respectively. Thus, including the control plates, a total of 100 different combinations were used. Dilutions were made in Oxoid Isosensitest Agar with plate inoculation by an automatic inoculator using a 2µl inoculum yielding semi-confluent growth over a disc approx. 7 mm diameter. End points were judged to be the lowest concentrations completely or almost completely inhibiting growth.
# a range of organisms = settings: against a range of organisms; cited from earlier work
# [1] = Serum concentrations in infected calves (Bratton-Marshall method for sulphonamide, bio-assay for Compound A); assay type: in vivo
# Description: Blood samples for assay of sulphonamide by the Bratton-Marshall method and for Compound A by bio-assay were collected before and 24 hours after the first injection, 2, 5 and 24 hours after the second injection, 24 hours after the fourth injection and 2, 5 and 24 hours after the fifth injection.
# [2] = test system: Salmonella dublin strain M738; test: Synergy in experimental bovine salmonellosis, five repeated daily subcutaneous injections (Example 2); assay type: in vivo, calves; settings: for Mortality: s.c., five days
# From the text: In planning the investigation of possible synergy between Compound A and sulphadimidine (SDD), it was decided that seven treatment groups (including an untreated control group) of eight calves each would be necessary, but because of the impossibility of housing this required total number of calves (56) at one time in the available isolation accommodation, it was planned to carry out two duplicate experiments each using seven groups of four calves.
# • 1) "Sodium Sulfamethazine Injectable Solution 25%" - Cyanamid. This commercial preparation contained 250 mg/ml of sodium SDD, equivalent to 232 mg/ml of SDD. • 2) Aqueous solution of SDD, 100 mg/ml in dilute NaOH. • 3) Aqueous solution of Compound A, 20 mg/ml as the hydrochloride.
# On the day of infection, Day 0, each calf received an oral dose of 50 ml of a log-phase culture of Salmonella dublin strain M738 diluted to contain an estimated 10¹⁰ organisms, using the published technique (White et al 1981a). A viable count on the inoculum was carried out.
# On the basis of Day 0 (am) bodyweights the calves were randomly allocated into 7 groups of 4.
# Using Day 0 bodyweights, 3 calves of identical weights to the day 0 weights of the 3 eliminated calves were allocated to the appropriate groups, and the remaining […] were randomly allocated to the 7 groups as above.
# Administration of compounds in all cases was by subcutaneous injection, using different sides of the animal for Compound A and SDD when both were given in groups 4, 5 and 6. The first of five consecutive daily injections was given 43 hours after […], the other following at 24 hour intervals.
# [3] = cattle older than about six weeks; cited from earlier work
compound,measurement,setting,value
"Cc1cc(Cc2cnc(N)nc2N)c2cccnc2c1N(C)C [Compound A, 2,4-diamino-5-(8-dimethylamino-7-methyl-5-quinolylmethyl) pyrimidine]",effect in treating acute salmonellosis (S.dublin) in calves,S.dublin,ineffective
same,growth at 24 hours,"S. dublin strain M738; Compound A 0.002 µg/ml, SDD 0 µg/ml",+
same,growth at 24 hours,"S. dublin strain M738; Compound A 0.004 µg/ml, SDD 0 µg/ml",+
same,growth at 24 hours,"S. dublin strain M738; Compound A 0.008 µg/ml, SDD 0 µg/ml",+
same,growth at 24 hours,"S. dublin strain M738; Compound A 0.016 µg/ml, SDD 0 µg/ml",+
same,growth at 24 hours,"S. dublin strain M738; Compound A 0.032 µg/ml, SDD 0 µg/ml",+
same,growth at 24 hours,"S. dublin strain M738; Compound A 0.064 µg/ml, SDD 0 µg/ml",+
same,growth at 24 hours,"S. dublin strain M738; Compound A 0.128 µg/ml, SDD 0 µg/ml",+
same,growth at 24 hours,"S. dublin strain M738; Compound A 0.256 µg/ml, SDD 0 µg/ml",-
same,growth at 24 hours,"S. dublin strain M738; Compound A 0.512 µg/ml, SDD 0 µg/ml",-
same,MIC,"S. dublin strain M738; each substance alone, Oxoid Isosensitest Agar, read-out: MIC",0.256 µg/mL
same,in vitro antibacterial activity,a range of organisms,good
same,serum concentrations of Compound A,[1]; Group 3: Compound A alone at 6 mg/kg daily s.c.,> 0.256 µg/mL
same,Mortality,[2]; Group 3: Compound A alone 6 mg/kg daily,5 out of 8
same,therapeutic effect,[2]; Group 3: Compound A alone at 6 mg/kg daily,ineffective
"Cc1cc(C)nc(NS(=O)(=O)c2ccc(N)cc2)n1 [SDD, sulphadimidine]",growth at 24 hours,"S. dublin strain M738; Compound A 0 µg/ml, SDD 1 µg/ml",+
same,growth at 24 hours,"S. dublin strain M738; Compound A 0 µg/ml, SDD 2 µg/ml",+
same,growth at 24 hours,"S. dublin strain M738; Compound A 0 µg/ml, SDD 4 µg/ml",+
same,growth at 24 hours,"S. dublin strain M738; Compound A 0 µg/ml, SDD 8 µg/ml",+
same,growth at 24 hours,"S. dublin strain M738; Compound A 0 µg/ml, SDD 16 µg/ml",+
same,growth at 24 hours,"S. dublin strain M738; Compound A 0 µg/ml, SDD 32 µg/ml",+
same,growth at 24 hours,"S. dublin strain M738; Compound A 0 µg/ml, SDD 64 µg/ml",+
same,growth at 24 hours,"S. dublin strain M738; Compound A 0 µg/ml, SDD 128 µg/ml",-
same,growth at 24 hours,"S. dublin strain M738; Compound A 0 µg/ml, SDD 256 µg/ml",-
same,MIC,S. dublin strain M738,128 µg/mL
same,serum concentrations of SDD,"[1]; Group 1: SDD alone 200/100 mg/kg daily s.c., throughout the dosing period",> 128 µg/mL
same,therapeutic effect,[2]; Group 1: SDD alone 200/100 mg/kg daily,therapeutically ineffective
same,clinical recovery of surviving calves,"[2]; Group 1: SDD alone 200/100 mg/kg, three surviving calves",very slow clinical recovery
same,bodyweight of surviving calves,"[2]; Group 1: SDD alone 200/100 mg/kg, three surviving calves, Day 21 versus Day 0",none had regained its Day 0 bodyweight by Day 21
same,Mortality,"[2]; Group 1: SDD alone, first dose 200 mg/kg, subsequent doses 100 mg/kg daily",5 out of 8
same,Mortality,[2]; Group 2: SDD alone 30 mg/kg daily,5 out of 8
COc1cc(Cc2cnc(N)nc2N)cc(OC)c1OC [trimethoprim],oral bioavailability,[3],very poor
